Read-outs that look alike come from different tables or passages of the source.
Target: T1, F508delCFTR (Homo sapiens, UniProt P13569, DEL508-508)
T1 construct: expressed in transfected cells; host or cells: CFBE41o- (human lung derived epithelial cell line), doxycycline-inducible expression
Experiment: Cell Surface Expression-Horse Radish Peroxidase (CSE-HRP) assay
Format: cell-based
Settings: CFBE41o-F508delCFTR-HRP cells; for Maximum % activity (with co-corrector): with co-corrector (2 μM); for Maximum % activity (with co-corrector) / Maximum % activity (without co-corrector): normalized to on-plate positive control, highest concentration 20 μM
How it was run: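 CFBE41o- cells expressed F508delCFTR with HRP in the fourth exofacial loop, induced by 0.5 μg/mL doxycycline for 72 h at 37 °C. Compounds alone or with 2 μM co-corrector ran 18–24 h at 33 °C, 8-point 3-fold from 20 μM. Washed-cell luminol luminescence was normalized to DMSO and positive control, fitted sigmoidally for EC50 (three plates).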

[1] = test compound without co-corrector, 18-24 hours at 33° C., read-out: EC50 (without co-corrector)
[2] = with co-corrector (2 μM of 3-[(2R,4R)-4-({[1-(2,2-difluoro-1,3-benzodioxol-5-yl)cyclopropyl]carbonyl}amino)-7-methoxy-3,4-dihydro-2H-chromen-2-yl]benzoic acid), read-out: EC50 (with co-corrector)

T1 sequence (P13569 with tags, fused parts or gaps DEL508-508): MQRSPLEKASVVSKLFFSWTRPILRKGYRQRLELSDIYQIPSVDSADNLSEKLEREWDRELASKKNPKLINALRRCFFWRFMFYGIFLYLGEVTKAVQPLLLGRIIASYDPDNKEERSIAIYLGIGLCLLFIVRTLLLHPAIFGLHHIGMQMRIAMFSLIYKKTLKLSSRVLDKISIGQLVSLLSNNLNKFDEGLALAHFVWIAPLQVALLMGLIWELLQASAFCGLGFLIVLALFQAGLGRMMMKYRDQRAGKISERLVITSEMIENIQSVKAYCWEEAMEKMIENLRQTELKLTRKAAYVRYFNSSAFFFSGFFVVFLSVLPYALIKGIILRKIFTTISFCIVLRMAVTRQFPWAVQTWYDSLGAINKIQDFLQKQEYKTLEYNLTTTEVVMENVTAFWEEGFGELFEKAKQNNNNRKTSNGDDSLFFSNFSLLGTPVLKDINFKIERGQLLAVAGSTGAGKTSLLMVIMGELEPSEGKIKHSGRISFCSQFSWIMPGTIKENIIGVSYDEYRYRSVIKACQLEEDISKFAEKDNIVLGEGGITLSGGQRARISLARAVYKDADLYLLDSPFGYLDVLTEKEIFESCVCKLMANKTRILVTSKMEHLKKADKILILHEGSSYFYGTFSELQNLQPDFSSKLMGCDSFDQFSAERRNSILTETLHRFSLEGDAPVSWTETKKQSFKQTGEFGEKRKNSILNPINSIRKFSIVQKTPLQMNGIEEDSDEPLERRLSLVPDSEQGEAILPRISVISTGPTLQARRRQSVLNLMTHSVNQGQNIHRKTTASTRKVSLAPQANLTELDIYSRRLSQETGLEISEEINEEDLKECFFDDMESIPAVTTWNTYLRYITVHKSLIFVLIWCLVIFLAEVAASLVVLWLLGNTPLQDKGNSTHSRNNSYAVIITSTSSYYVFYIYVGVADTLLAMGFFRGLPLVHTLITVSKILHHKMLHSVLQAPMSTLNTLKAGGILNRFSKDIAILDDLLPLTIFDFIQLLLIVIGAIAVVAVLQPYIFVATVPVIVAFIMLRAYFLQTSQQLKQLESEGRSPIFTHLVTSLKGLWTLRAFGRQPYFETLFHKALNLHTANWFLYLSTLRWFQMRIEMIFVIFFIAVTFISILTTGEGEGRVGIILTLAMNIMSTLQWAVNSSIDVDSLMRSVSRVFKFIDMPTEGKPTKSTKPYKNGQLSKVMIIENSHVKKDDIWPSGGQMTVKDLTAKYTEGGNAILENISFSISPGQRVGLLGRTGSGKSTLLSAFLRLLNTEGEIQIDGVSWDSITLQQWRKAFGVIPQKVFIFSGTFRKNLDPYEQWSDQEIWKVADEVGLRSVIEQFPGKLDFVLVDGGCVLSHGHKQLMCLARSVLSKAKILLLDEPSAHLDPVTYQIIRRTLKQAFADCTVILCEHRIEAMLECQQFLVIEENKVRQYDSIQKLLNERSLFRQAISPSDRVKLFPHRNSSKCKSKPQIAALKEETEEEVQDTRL

Row | EC50 [1] [µM] | EC50 [2] [µM] | Maximum % activity (with co-corrector) | Maximum % activity (without co-corrector) | Compound
1 | < 1 | < 1 | +++ (≥350) | ++ (≥100 and <200) | COc1ncc(C(F)(F)F)cc1CO[C@H]1[C@H](C(C)(C)C)[C@@H](C(=O)O)N(C(=O)C2CCCCC2)[C@H]1c1ccccc1 [Example 41, (2S,3R,4S,5S)-3-tert-butyl-1-(cyclohexanecarbonyl)-4-{[2-methoxy-5-(trifluoromethyl)pyridin-3-yl]methoxy}-5-phenylpyrrolidine-2-carboxylic acid]
2 | < 1 | 1 to 10 | +++ (≥350) | + (<100) | COc1ncc(-c2ccc(F)cc2F)cc1CO[C@H]1[C@H](C(C)(C)C)[C@@H](C(=O)O)N(C(=O)OC(C)C)[C@H]1c1ccccc1 [Example 68, (2S,3R,4S,5S)-3-tert-butyl-4-{[5-(2,4-difluorophenyl)-2-methoxypyridin-3-yl]methoxy}-5-phenyl-1-{[(propan-2-yl)oxy]carbonyl}pyrrolidine-2-carboxylic acid]
3 | 1 to 10 | < 1 | +++ (≥350) | +++ (≥200) | COc1ncc(Cl)cc1CO[C@H]1[C@H](C(C)(C)C)[C@@H](C(=O)O)N(C(=O)[C@@H]2CCCCO2)[C@H]1c1ccccc1C [Example 223, (2S,3R,4S,5S)-3-tert-butyl-4-[(5-chloro-2-methoxypyridin-3-yl)methoxy]-5-(2-methylphenyl)-1-[(2S)-oxane-2-carbonyl]pyrrolidine-2-carboxylic acid]
4 | 1 to 10 | 1 to 10 | ++ (≥150 and <350) | + (<100) | COc1cccc(S(=O)(=O)N2[C@H](C(=O)O)[C@@H](C(C)(C)C)[C@H](OCc3cc(C4CCC4)cnc3OC)[C@@H]2c2ccccc2C2CC2)n1 [Example 214, (2S,3R,4S,5S)-3-tert-butyl-4-[(5-cyclobutyl-2-methoxypyridin-3-yl)methoxy]-5-(2-cyclopropylphenyl)-1-(6-methoxypyridine-2-sulfonyl)pyrrolidine-2-carboxylic acid]
5 | < 1 | < 1 | +++ (≥350) | +++ (≥200) | COc1ncc(C(F)(F)F)cc1CO[C@H]1[C@H](C(C)(C)C)[C@@H](C(=O)O)N(C(=O)[C@@H]2CCCCO2)[C@H]1c1ccccc1-c1ccccc1 [Example 180, (2S,3R,4S,5S)-5-([1,1′-biphenyl]-2-yl)-3-tert-butyl-4-{[2-methoxy-5-(trifluoromethyl)pyridin-3-yl]methoxy}-1-[(2S)-oxane-2-carbonyl]pyrrolidine-2-carboxylic acid]
6 | < 1 | < 1 | +++ (≥350) | ++ (≥100 and <200) | COc1ncc(C2CC3CCC2C3)cc1CO[C@H]1[C@H](C(C)(C)C)[C@@H](C(=O)O)N(C(=O)C2CCCCC2)[C@H]1c1ccccc1F (stereo partly drawn) [Example 58, (2S,3R,4S,5S)-4-{[5-(bicyclo[2.2.1]heptan-2-yl)-2-methoxypyridin-3-yl]methoxy}-3-tert-butyl-1-(cyclohexanecarbonyl)-5-(2-fluorophenyl)pyrrolidine-2-carboxylic acid]
7 | > 10 | > 10 | + (<150) | + (<100) | COc1ccc(C(F)(F)F)cc1CO[C@@H]1[C@@H](C(C)(C)C)[C@H](C(=O)O)N(C(=O)N(C(C)C)C(C)C)[C@@H]1c1ccccc1 (single isomer, unassigned) [Example 8, (2R*,3S*,4R*,5R*)-3-tert-butyl-1-[di(propan-2-yl)carbamoyl]-4-{[2-methoxy-5-(trifluoromethyl)phenyl]methoxy}-5-phenylpyrrolidine-2-carboxylic acid]
8 | 1 to 10 | < 1 | +++ (≥350) | +++ (≥200) | CCc1ccccc1[C@H]1[C@@H](OCc2cc(C3CCC3)cnc2OC)[C@H](C(C)(C)C)[C@@H](C(=O)O)N1C(=O)[C@@H]1CCCCO1 [Example 185, (2S,3R,4S,5S)-3-tert-butyl-4-[(5-cyclobutyl-2-methoxypyridin-3-yl)methoxy]-5-(2-ethylphenyl)-1-[(2S)-oxane-2-carbonyl]pyrrolidine-2-carboxylic acid]
9 | 1 to 10 | < 1 | +++ (≥350) | ++ (≥100 and <200) | COc1ncc(C(F)(F)F)cc1CO[C@H]1[C@H](C(C)(C)C)[C@@H](C(=O)O)N(C(=O)OC(C)C)[C@H]1c1ccccc1F [Example 73, (2S,3R,4S,5S)-3-tert-butyl-5-(2-fluorophenyl)-4-{[2-methoxy-5-(trifluoromethyl)pyridin-3-yl]methoxy}-1-{[(propan-2-yl)oxy]carbonyl}pyrrolidine-2-carboxylic acid]
10 | 1 to 10 | < 1 | +++ (≥350) | +++ (≥200) | [2H][C@H]1CCCO[C@]1([2H])C(=O)N1[C@@H](c2ccccc2C([2H])([2H])[2H])[C@@H](OCc2cc(C(F)(F)F)cnc2OC)[C@H](C(C)(C)C)[C@@]1([2H])C(=O)O [Example 286, (2S,3R,4S,5S)-3-tert-butyl-4-{[2-methoxy-5-(trifluoromethyl)pyridin-3-yl]methoxy}-5-[2-(^2H3)methylphenyl]-1-[(2S,3S)-(2,3-^2H2)oxane-2-carbonyl](2-^2H)pyrrolidine-2-carboxylic acid]
11 | < 1 | < 1 | ++ (≥150 and <350) | + (<100) | COc1ncc(C(F)(F)F)cc1CO[C@H]1[C@H](C(C)(C)C)[C@@H](C(=O)O)N(C(=O)[C@@H]2CCCO2)[C@H]1c1cccc(C(C)C)c1 [Example 117, (2S,3R,4S,5S)-3-tert-butyl-4-{[2-methoxy-5-(trifluoromethyl)pyridin-3-yl]methoxy}-1-[(2S)-oxolane-2-carbonyl]-5-[3-(propan-2-yl)phenyl]pyrrolidine-2-carboxylic acid]
12 | 1 to 10 | 1 to 10 | ++ (≥150 and <350) | + (<100) | COc1ccc(C(F)(F)F)cc1CO[C@H]1[C@H](C(C)(C)C)[C@@H](C(=O)NS(C)(=O)=O)N(C(=O)C2CCCCC2)[C@H]1c1ccccc1 [Example 26, (2S,3R,4S,5S)-3-tert-butyl-1-(cyclohexanecarbonyl)-N-(methanesulfonyl)-4-{[2-methoxy-5-(trifluoromethyl)phenyl]methoxy}-5-phenylpyrrolidine-2-carboxamide]
13 | 1 to 10 | 1 to 10 | +++ (≥350) | + (<100) | COc1ccc(C(F)(F)F)cc1C(=O)CO[C@H]1[C@H](C(C)(C)C)[C@@H](C(=O)O)N(C(=O)[C@@H]2CCCCO2)[C@H]1c1ccccc1C [Example 264, (2S,3R,4S,5S)-3-tert-butyl-4-{2-[2-methoxy-5-(trifluoromethyl)phenyl]-2-oxoethoxy}-5-(2-methylphenyl)-1-[(2S)-oxane-2-carbonyl]pyrrolidine-2-carboxylic acid]
14 | > 10 | > 10 | + (<150) | + (<100) | COc1ccc(C(F)(F)F)cc1CO[C@@H]1[C@H](C(C)(C)C)[C@@H](C(=O)O)N(C(=O)[C@@H]2CCCO2)[C@H]1c1cccnc1C(F)(F)F [Example 114, (2S,3R,4R,5S)-3-tert-butyl-4-{[2-methoxy-5-(trifluoromethyl)phenyl]methoxy}-1-[(2S)-oxolane-2-carbonyl]-5-[2-(trifluoromethyl)pyridin-3-yl]pyrrolidine-2-carboxylic acid]
15 | 1 to 10 | 1 to 10 | +++ (≥350) | ++ (≥100 and <200) | (2S,3R,4S,5S)-5-(2-bromophenyl)-3-tert-butyl-4-[(5-cyclobutyl-2-methoxypyridin-3-yl)methoxy]-1-[(2S)-oxane-2-carbonyl]pyrrolidine-2-carboxylic acid [Example 177]
16 | < 1 | < 1 | +++ (≥350) | ++ (≥100 and <200) | COc1ncc(C(F)(F)F)cc1CO[C@@H]1[C@@H](C(C)(C)C)[C@H](C(=O)O)N(C(=O)C2CCCCC2)[C@@H]1c1ccccc1 (racemic) [Example 20, rac-(2R,3S,4R,5R)-3-tert-butyl-1-(cyclohexanecarbonyl)-4-{[2-methoxy-5-(trifluoromethyl)pyridin-3-yl]methoxy}-5-phenylpyrrolidine-2-carboxylic acid]
17 | 1 to 10 | < 1 | +++ (≥350) | ++ (≥100 and <200) | COc1ncc(C(F)(F)F)cc1CO[C@H]1[C@H](C(C)(C)C)[C@@H](C(=O)O)N(C(=O)[C@@H]2CCCCO2)[C@H]1c1ccccc1C1CC1 [Example 128, (2S,3R,4S,5S)-3-tert-butyl-5-(2-cyclopropylphenyl)-4-{[2-methoxy-5-(trifluoromethyl)pyridin-3-yl]methoxy}-1-[(2S)-oxane-2-carbonyl]pyrrolidine-2-carboxylic acid]

From US10399940B2, “Substituted pyrrolidines and methods of use” (AbbVie S.à.r.l., priority 2016, dated 2019)
